In BindingDB's records for doi:10.1074/jbc.M803947200 (Universit&Eacute, 2008):

Target: Stromal cell-derived factor 1 (Homo sapiens, UniProt P48061)
Experiment: Tryptophan Fluorescence Assay
Conditions: 20 °C
Excerpt: Binding of chalcone 4 and chlcone 1 to CSCL12 was examined by monitoring changes in the emission intensity of intrinsic Trp fluorescence of the chemokine.

Chain of Stromal cell-derived factor 1 (P48061 whole entry): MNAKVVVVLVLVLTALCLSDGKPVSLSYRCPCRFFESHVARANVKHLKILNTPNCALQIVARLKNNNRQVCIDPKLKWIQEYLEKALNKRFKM

Row | IC50 [µM] | SMILES
1 | 150 | COc1cc(/C=C/C(=O)c2ccc(Cl)cc2)ccc1O [1-(4-Chloro-phenyl)-3-(4-hydroxy-3-methoxy-phenyl)-propenone]
2 | 24.2 | O=C(/C=C/c1ccc(O)cc1)c1ccccc1O [(E)-1-(2-hydroxyphenyl)-3-(4-hydroxyphenyl)prop-2-en-1-one]
3 | 15 | O=C(/C=C/c1ccc(O)cc1)c1ccccc1 [Chalcone 2]
4 | > 500 | O=C(/C=C/c1ccccc1)c1ccccc1 [Chalcone, 13]
